Laboratory results from patent US20200206198A1, “CFTR CHANNEL ACTIVATOR FOR USE IN THE TREATMENT AND/OR PREVENTION OF GLUTEN SENSITIVITY CONDITIONS” (priority 2017, published 2020).

System: non-obese diabetic (NOD) female mice
Experiment: NOD mice orally challenged with gliadin
Type: in vivo, mouse
From the text: In the second model of gluten sensitivity, the Applicant resorted to non-obese diabetic (NOD) female mice, which spontaneously develop autoimmune type-1 diabetes (Maurano, F., et al. 2005).
BALB/c mice (background BALB/cAnNCrl) were purchased from Charles River (Varese, Italy). Three generation gluten-free diet (Mucedola srl, Milan), male and female, were challenged with gliadin for 4 weeks. […]
Chambers for mounting either transwell cell cultures or mouse tissue biopsies were obtained from Physiologic Instruments (model P2300, San Diego, Calif., USA). […] Shortcircuit current (expressed as Isc (μA/cm2)) and resistance were acquired or calculated using the VCC600 transepithelial clamp from Physiologic Instruments and the Acquire & Analyze 2.3 software for data acquisition (Physiologic Instruments), as previously described Tosco A, et al. 2016; Romani, L. et al. 2017).
ELISA analysis was performed on tissue samples using standard ELISA kits (R&D Systems) for IL-15, IL-17A, INFγ IL21, IL10, TGF-β. […] Samples were read in triplicate at 450 nm in a Microplate Reader (BioRad, Milan, Italy) using Microplate Manager 5.2.1 software. Values were normalized to protein concentration evaluated by Bradford analysis. […]

Structure (SMILES): CC(C)(C)c1cc(C(C)(C)C)c(NC(=O)c2c[nH]c3ccccc3c2=O)cc1O [VX-770, N-(2,4-di-tert-butyl-5-hydroxyphenyl)-4-oxo-1,4-dihydroquinoline-3-carboxamide]
- immunoprotective effects (IL-15, IL-17A, IFN-γ protein) (NOD mice challenged with gliadin after diabetes onset): immunoprotective effects of VX-770 were confirmed
- effect on gliadin-induced reduction in CFTR function (NOD mice, VX-770 i.p.): inhibitable
